This note sets out measurements from US20220054658A1, “CONJUGATES” (Transfection Holdings Limited, priority 2018, published 2022).

The test system of assay [1] is C. elegans. As to the kind of experiment: Conjugate uptake in C. elegans (dye and praziquantel conjugates, fluorescence microscopy). Particulars: 50 μM; for viability of the nematodes: readings up to 72 h. The format is in vivo, Caenorhabditis elegans. Here is the method:
Nematode Growth Media (NGM) plates containing C. elegans were washed with 1.0-1.5 mL of standard M9 buffer and the washes were collected in an Eppendorf tube. The liquid containing the C. elegans was then spun for 1 min at room temperature at 10,000 rpm. The supernatant was removed, and fresh M9 buffer was added (500 μL) to generate a new stock solution of M9 buffer containing the C. elegans.
A C. elegans suspension (100 μL) was added a defined amount of M9 buffer (determined by the final desired concentration of compound to be tested: 399 μL in the case of the BODIPY tagged derivatives) contained within a separate Eppendorf tube. To this was then added a 25 mM solution of the compound in DMSO (1 μL). The resulting suspension was mixed using a vortex instrument.
The resulting mixture was incubated at room temperature for 2 to 4 h. in the dark (using aluminium foil to screen the tube, which was also stored in a cabinet).
Other samples were incubated overnight. Here, OP50 bacteria (3 μL) were added to the worms for feeding purposes, and the worms were kept in the dark at 20° C.
After the incubation, the tube contents were mixed gently by hand (typically by simple rotation of the tube), so as to achieve a homogenous suspension. A sample of the suspension (250 μL) was taken and mixed with M9 buffer (500 μL). The resulting suspension was placed in a centrifuge and spun at room temperature at 10,000 rpm for 1 min. The supernatant was removed, and the washing process was repeated twice more, each time using further quantities of fresh M9 buffer (500 μL each time). After the final washing sufficient supernatant was removed so as to leave a final sample volume of approximate 30 μL.
A 1.5% agarose solution in water was pre-warmed for 60 to 90 s. in a standard household style microwave (set to Power 4). Two drops of this solution was removed and placed on a glass slide. The glass slide was covered with a second glass slide. After 1 min., the slides were slid carefully apart, with the agarose remaining on one of the slides. Onto this slide was placed an aliquot of the final C. elegans solution (15 to 20 μL). To this was added a 20 mM sodium azide solution (5 μL) to inhibit nematode mobility. Vaseline was then placed around the agarose area before replacing the second slide. The slides were not pressed together.
The nematodes were then analysed using a Zeiss Axiskop 2 Plus microscope with a Hamamatsu Orca-ER (CA 742-95) camera. The images were resolved using OpenLab on a Mac operating system.
Compounds 1-11 were evaluated after 3 h and overnight incubation at a 50 μM concentration using the general uptake protocol described for C. elegans.
In order to compare the ability of a conjugate to improve the uptake of the drug praziquantel, two praziquantel derivatives were generated. Praziquantel was tagged with a BODIPY fluorescent tag (compound 12) and incorporated into a conjugate of the invention (compound 13). Compounds 12 and 13 were evaluated at a concentration of 50 μM using the C. elegans uptake protocol described above for compounds 1-11. Microscopic readings were taken after 3, 24 and 72 h.

Assay [2] relates to L. passim strain PRA-403. As to the kind of experiment: Lotmaria passim parasite uptake test. The format is cell-based. To be noted: room temperature, 45 min; for uptake in L. passim (fluorescence intensity, microplate reader): 1 μM and 100 μM. Here is the method: 100 mM stock solutions of BODIPY derivatives were prepared with dimethylsulfoxide (DMSO). L passim strain PRA-403 (ATCC) was cultured in modified medium for C. bombi (Tognazzo et al.). The parasite culture was centrifuged, supernatant was removed and 500 μL of L passim medium with compound (final concentration 500, 100, 10 or 1 μM for BODIPY derivatives) or DMSO (0.1%) control was added. Incubated for 45 min at room temperature.
Uptake tests were performed at 1 μM and 100 μM final concentration of CJ-BODIPY derivatives. After incubation at room temperature for 45 min, fluorescence intensities were evaluated using a microplate reader.

Assay [3] has as its system gastrointestinal system (crop, midgut and rectum) of adult honey bees. As to the kind of experiment: Honey bee gut uptake test. On the set-up: species or system Apis mellifera. Particulars: 100 μM, 33° C., 45 min. On the procedure: Honey bee (A. mellifera) hives were obtained and allowed to feed ab libitum spring to autumn. During the winter period, pollen mixed with 50% (v/v) sucrose was added to the honey bee hives in order to provide sufficient food. Honey bees were dissected and gastrointestinal system was removed including the crop, midgut and rectum, and added immediately to 500 μL of the delivery vehicle to be tested sample diluted with PBS at 100 μM final concentration or DMSO (0.1%) control. The mixture was incubated for 45 min at 33° C.
The gastrointestinal system (crop, midgut and rectum) of adult honey bees was extracted, and incubated with derivatives 1, 2, 8 and 11 at 100 μM and 33° C. for 45 min.

“Also recorded” adds a separate entry of the source.

Regarding `CC1=CC(C)=[N+]2C1=Cc1ccc(CCCn3cc(CCNC(=O)/C=C\NC(=O)[C@H]4OC(C)(C)OCC4(C)C)nn3)n1[B-]2(F)F` [Compound 4, (Z)—N-((((3-[4,4-Difluoro-5,7-dimethyl-4-bora-3a,4a-diaza-s-indacene-3-yl]propyl)-1H-1,2,3-triazol-4-yl)ethylamino)-3-oxoprop-1-enyl)-2,2,5,5-tetramethyl-1,3-dioxane-4-carboxamide], the “uptake: location of fluorescence in C. elegans” value (“uptake: location of fluorescence” below) in assay [1] (3 h incubation) was “traces of compound 4 were present in the gut cells of larval stages”; in assay [1] (20 h / overnight incubation), “fluorescence was detected in the pharynx and the gut cells of the larval stages as well as in the early stage of egg development”. Also, the “uptake in L. passim (fluorescence intensity, microplate reader)” value in assay [2] is listed as “one of the lowest amounts of uptake”.

Regarding `CC1=CC(C)=[N+]2C1=Cc1ccc(CCCn3cc(CCNC(=O)/C=C\NC(=O)[C@H](O)C(C)(C)CO)nn3)n1[B-]2(F)F` [Compound 6, (Z)—N-((((3-[4,4-Difluoro-5,7-dimethyl-4-bora-3a,4a-diaza-s-indacene-3-yl]propyl)-1H-1,2,3-triazol-4-yl)ethylamino)-3-oxoprop-1-enyl)-2,4-dihydroxy-3,3-dimethylbutanamide], in assay [1] (3 h incubation), the “uptake compared to other compounds” value is given as “much lower degree than the enantiomeric analogue compound 8”; the “uptake: location of fluorescence” value was “visible in the gut cells and gut lumen of larval stages and in a lesser extent in the pharynx; also recorded: In adults, fluorescence was located in the pharynx, gut lumen and gut cells; also recorded: Fluorescence was not observed in the embryos”. For the same compound, the “uptake: location of fluorescence” value in assay [1] (20 h / overnight incubation) is “fluorescence was present in the gut lumen and gut cells, and to a smaller degree in the pharynx of the larvae; also recorded: Fluorescence was also present in the pharynx, gut cells and gut lumen of the adults as well as in the early stages of egg development; also recorded: Fluorescence was not observed in the embryos”.

Turning to `CC1=CC(C)=[N+]2C1=Cc1ccc(CCCn3cc(CCNC(=O)/C=C\NC(=O)[C@H](O)C(C)(C)CO)nn3)n1[B-]2(F)F` [Compound 8, (Z)—N-((((3-[4,4-Difluoro-5,7-dimethyl-4-bora-3a,4a-diaza-s-indacene-3-yl]propyl)-1H-1,2,3-triazol-4-yl)ethylamino)-3-oxoprop-1-enyl)-2,4-dihydroxy-3,3-dimethylbutanamide], the “fluorescence in honey bee gut (crop, midgut, rectum)” value in assay [3] is “slight fluorescence in midgut and rectum, but none in the crop”. Moreover, in assay [1] (3 h incubation), the “uptake compared to other compounds” value is “second largest uptake observed compared to compounds 1 to 7”; the “uptake: location of fluorescence” value is “visible in the gut cells and gut lumen and to a lesser extent into the pharynx of larvae; also recorded: In adults, fluorescence was observed in the pharynx, the gut lumen, the gut cells, and eggs”. In addition, in assay [1] (20 h / overnight incubation), the “uptake: location of fluorescence” value was “fluorescence was present in the pharynx, gut lumen and gut cells of the larvae; also recorded: In adults, fluorescence was detected in the pharynx, gut lumen and gut cells, but not in the embryos”. Moreover, the “uptake in L. passim (fluorescence intensity, microplate reader)” value in assay [2] is on record as “relatively low uptake”. Also, the “uptake in L. passim (fluorescence microscopy)” value in assay [2] (10 μM) was “displayed fluorescence surrounding the cell membrane but not in the cytoplasm”.

Consider `CC1=CC(C)=[N+]2C1=Cc1ccc(CCC(=O)N3CC(=O)N4CCc5ccccc5C4C3)n1[B-]2(F)F` (stereo not drawn) [Compound 12, 5,5-Difluoro-1,3-dimethyl-7-(3-oxo-3-(4-oxo-3,4,6,7-tetrahydro-1-pyrazino[2,1-a]isoquinolin 2(11 bH)-yl)propyl)-5H-dipyrrolo[1,2-c:2′,1′-f][1,3,2]diazaborinin-4-ium-5-uide, reference compound], for which the “uptake: location of fluorescence” value in assay [1] (3 h incubation) is “weakly up taken up into the pharynx and gut cells of the C. elegans larvae, as well as by adult nematodes mainly in the gut cells with lesser amount in the pharynx”; in assay [1] (24 h incubation) it was “the larva showed no increased uptake, with very minor amounts of compound 12 located in the pharynx and the gut cells”; in assay [1] (72 h incubation), “only the gut cells of the larvae showed the presence of small amounts of fluorescence; also recorded: In the case of the adult stages, fluorescence was visible in the gut lumen, gut cells and pharynx”. The “viability of the nematodes” value in assay [1] is given as “remained viable with no apparent detrimental effect”.

With `CC1(C)OCC(C)(C)[C@H](C(=O)N/C=C/C(=O)NCCc2cn(CCCC3=[N+]4C(=Cc5ccc(CCC(=O)N6CC(=O)N7CCc8ccccc8C7C6)n5[B-]4(F)F)C=C3)nn2)O1` (stereo partly drawn) [Compound 13, 5,5-Difluoro-7-(3-oxo-3-(4-oxo-3,4,6,7-tetrahydro-1H-pyrazino[2,1-a]isoquinolin-2(11bH)-yl)propyl)-3-(3-(4-(2-((E)-3-((R)-2,2,5,5-tetramethyl-1,3-dioxane-4-carboxamido)acrylamido)ethyl)-1H-1,2,3-triazol-1-yl)propyl)-5H-dipyrrolo[1,—2-c:2′,1′-f][1,3,2]diazaborinin-4-ium-5-uide], the “uptake: location of fluorescence” value was “strongly located in the pharynx, gut cells and gut lumen of the larval stages; also recorded: In the adult nematodes, compound 13 was strongly located in the pharynx, gut cells and gut lumen, whilst not visible in the embryos” in assay [1] (3 h incubation); “strongly observed in the pharynx, gut cells and gut lumen of the larva” in assay [1] (24 h incubation); “still strongly visible in the pharynx, gut lumen and get cells of the larvae; also recorded: In the case of the adult nematodes, compound 13 was strongly visible in the pharynx and in the gut lumen, as well as in the embryos and eggs” in assay [1] (72 h incubation). In assay [1] (20 h incubation), the “increase in uptake of compound 13 compared to compound 12” value is given as “threefold increase”. The “viability of the nematodes” value in assay [1] is listed as “remained viable with no apparent detrimental effect”.
